What was measured:
[1] = Solubility/compatibility test in typical oligomer resins; settings: mass soluble in 100 g of oligomer, 20° C.
Method: Test method: The mass of soluble ultraviolet absorber in 100 g of oligomer when the ambient temperature is 20° C.

[2] = Absorption spectrum in chloroform (UV-visible spectrophotometer); type: physicochemical; settings: chloroform solution 10 mg/L; for Peak area ratio in waveband 280-450 nm: total
Method: The absorption spectra were measured using an ultraviolet-visible spectrophotometer, and the instrument model is (UV-2600, Shimadzu corporation, Japan). The absorption spectra were compared in Table 1 below.

[3] = Color test, Gardner color scale of DMF solution; type: physicochemical; settings: 2 g dissolved in 18 g DMF
Method: The completely dissolved solution was transferred to a cuvette, and the Gardner color scale value transmitted by the solvent was measured. The instrument was a Ci7600 bench spectrophotometer (X-rite, the United States).

[4] = general description of the commercial product; cited from earlier work

Solubility in cyclohexanedimethylene diisocyanate (H6XDI) [1] | Solubility in hexamethylene diisocyanate (HDI) trimer [1] | Solubility in tripropylene glycol diacrylate [1] | Absorption cut-off wavelength [2] | Maximum absorption peak in red shift direction [2] | Peak area ratio in waveband 280-360 nm [2] | Peak area ratio in waveband 361-380 nm [2] | Peak area ratio in waveband 381-400 nm [2] | Peak area ratio in waveband 401-450 nm [2] | Peak area ratio in waveband 280-450 nm [2] | Gardner color scale [3] | SMILES | Wavelength to which absorption can be red-shifted [4]
3 g | 3.5 g | 3.8 g | 430 nm | 370 nm | 65.4% | 18.1% | 11.8% | 4.7% | 100.0% | 5.2 | CCCCCCCCCCCCS(=O)(=O)c1ccc2nn(-c3cc(C)cc(C(C)(C)C)c3O)nc2c1 [RSUV-2] | –
4.2 g | 4.6 g | 3.9 g | 416 nm | 369 nm | 58.1% | 26.5% | 13.6% | 1.8% | 100.0% | 3.0 | CCCCCCCCCCCCSc1ccc2nn(-c3cc(C)cc(C(C)(C)C)c3O)nc2c1 [RSUV-1] | –
– | – | – | 410 nm | – | – | – | – | – | – | – | Cc1cc(-n2nc3ccc(Cl)cc3n2)c(O)c(C(C)(C)C)c1 [UV-326, 2′-(2′-hydroxy-3′-tert-butyl-5′-methylphenyl)-5-chlorobenzotriazole, reference compound] | –
– | – | – | 435 nm | 374 nm | 56.2% | 14.6% | 18.5% | 10.7% | 100% | 11.5 | CCCCN1C(=O)c2cc3nn(-c4cc(C(C)(C)CC(C)(C)C)cc(C(C)(C)c5ccccc5)c4O)nc3cc2C1=O [Carboprotect, reference compound] | 420 nm

From US20250026916A1, “ULTRAVIOLET ABSORBER AND USE THEREOF” (RIANLON (ZHONGWEI) NEW MATERIAL CO., LTD., priority 2023, published 2025)
